Experimental data as given in PMC11865978, “Cellular Activity of CQWW Nullomer-Derived Peptides” (ACS Omega, 2025).

System: patient-derived glioblastoma cell lines
Assay: Cell survival by nuclei counts, summarised across cell lines
Format: cell-based, human
Conditions: ratio of nuclei-count IC50s
Procedure: Peptides were tested in an automated image-based high-content[42] cell painting[43],[44] assay that was originally developed to explore the mechanism of action of pharmacological and genetic perturbations within cells,[45] as well as a live cell imaging assay against six patient-derived glioblastoma cell lines (GCGR-E13, GCGR-E28, GCGR-E21, GCGR-E57, GCGR-E31, and GCGR-E34), covering classical, mesenchymal, and proneural subtypes, respectively (see Methods and Figure 1B–D), along with a healthy human fetal neuronal stem cell line (GCGR-NS9FB_B).
Cell survival was quantified by nuclei counts from the Hoechst dye-stained nuclei and IC50 values calculated along with 95% confidence intervals (Figure 1B; see Table S2 for full details). […]
High Content Phenotypic Screening assays
Cell lines (glioma stem cell lines and normal foetal neural stem cells) were seeded on laminin (10 µg/mL) coated 384-well plates (Greiner Bio-One, 781091) at 1,000 cells/well and incubated overnight at 37 °C and 5% CO2. […]
BSA/PBS. […] The data was then analyzed using a custom CellProfiler software pipeline using the University of Edinburgh high performance computing cluster. Dose response plots were calculated using HC StratomineR (corelifeanalytics.com). Nuclei count data was analyzed separately to generate cell survival metrics (normalized to aqueous glycerol/TX -100 control). […]

With H-RRRRRCQWW-NH2 [Peptide 2] the “selectivity for reduction in nuclei counts, glioblastoma stem cells compared to normal neural stem cells (GCGR-NS9FB_B)” value was 1.5- to 2 fold.
